Measurements: US4921850A, “3-propenylcephem derivative” (Eisai Co., Ltd., priority 1986, dated 1990)
Values after ≈ are worked out from the molar mass of the structure shown. Read-outs that look alike come from different tables or passages of the source.

Assays:
[1] = system: Xantomonas maltophilia E 04004; test: Comparison test of anti-bacterial activity (MIC); assay type: cell-based; settings: 18 h, comparison R1 = CH2F vs CH3
Method: (§1) MIC (μg/ml) were determined by an agar dilution method [Chemotherapy (Japan), 29, 76-79, 1981]. Overnight cultures of the bacterial strains in Mueller-Hinton broth were diluted to final concentration of about 10^6 CFU/ml, and 5 μl of each bacterial suspension was spotted onto Mueller-Hinton agar plates that contained twofold serial dilutions of antibiotics. MICs were measured after incubation for 18 hours at 37° C.
(§2) Comparison tests of the anti-bacterial activities were conducted between the compounds of the following formula according to the present invention and the corresponding control compounds wherein R1 represents methyl group. Measurements of MIC are the same as described in the above item 2.

Proteus vulgaris E 08042 = test: Comparison test of anti-bacterial activity (MIC); assay type: cell-based; settings: E08042, 18 h, comparison R1 = CH2F vs CH3
Method: as §1, §2

Staph. aureus E 31106 = test: Comparison test of anti-bacterial activity (MIC); assay type: cell-based; settings: Staphylococcus aureus, E31106, 18 h, comparison R1 = CH2F vs CH3
Method: as §1, §2

[2] = system: Enterobacter cloacae E-74; test: Comparison test of anti-bacterial activity (MIC); assay type: cell-based; settings: E74, 18 h, comparison R1 = CH2F vs CH3
Method: as §1, §2

Kleb. pneumoniae EK-6 = test: Anti-bacterial activity (MIC), agar dilution; assay type: cell-based
Method in brief: (§3)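 Agar dilution; MH broth overnight cultures → ~10^6 CFU/ml; spotted on MH agar with twofold serial drug dilutions; 18 h, 37° C; MIC in μg/ml.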

[3] = system: Morganella morganii EP-14; test: Anti-bacterial activity (MIC), agar dilution; assay type: cell-based; settings: about 10^6 CFU/ml, 37° C.
Method in brief: as §3

Pseud. aeruginosa EP-01 = test: Anti-bacterial activity (MIC), agar dilution; assay type: cell-based
Method in brief: as §3

Escher. coli NIHJ = test: Anti-bacterial activity (MIC), agar dilution; assay type: cell-based
Method in brief: as §3

Staph. aureus 209-P = test: Anti-bacterial activity (MIC), agar dilution; assay type: cell-based; settings: Staph. aureus 209-P, agar dilution, about 10^6 CFU/ml, 18 hours, 37° C.
Method in brief: as §3

Ser. marcescens ES-75 = test: Anti-bacterial activity (MIC), agar dilution; assay type: cell-based; settings: Ser. marcescens ES-75, agar dilution, about 10^6 CFU/ml, 18 hours, 37° C.
Method in brief: as §3

in vivo = settings: read-out: values of acute toxicity
Excerpt: (1) Acute toxicity in mouse:
The compounds according to this invention dissolved in a physiological saline solution were intravenously dosed to five ICR male 6 weeks-old mouse.

[4] = Klebsiella pneumoniae, EK6, 18 h, Kleb. pneumoniae EK-6, agar dilution, about 10^6 CFU/ml, 18 hours, 37° C., read-out: MIC
[5] = Morganella morganii, EP14, 18 h, read-out: MIC
[6] = Pseudomonas aeruginosa, EP01, 18 h, Pseud. aeruginosa EP-01, agar dilution, about 10^6 CFU/ml, 18 hours, 37° C., read-out: MIC
[7] = Escherichia coli, 18 h, Escher. coli NIHJ, agar dilution, about 10^6 CFU/ml, 18 hours, 37° C., read-out: MIC
[8] = Staphylococcus aureus, 209P, 18 h, read-out: MIC
[9] = Serratia marcescens, ES75, 18 h, read-out: MIC
[10] = intravenous, physiological saline solution, five ICR male 6 weeks-old mouse

SMILES	MIC [1] [µg/mL]	MIC (Proteus vulgaris E 08042) [µg/mL]	MIC (Staph. aureus E 31106) [µg/mL]	MIC [2] [µg/mL]	MIC (Kleb. pneumoniae EK-6; [4]) [µg/mL]	MIC (Pseud. aeruginosa EP-01; [6]) [µg/mL]	MIC (Escher. coli NIHJ; [7]) [µg/mL]	MIC [3, 5] [µg/mL]	MIC (Staph. aureus 209-P; [8]) [µg/mL]	MIC (Ser. marcescens ES-75; [9]) [µg/mL]	LD50 (in vivo; [10]) [mg/kg]	other results
CO/N=C(\C(=O)N[C@@H]1C(=O)N2C(C(=O)[O-])=C(/C=C/C[n+]3ccc(C(=O)O)cc3)CS[C@H]12)c1nsc(N)n1 [CH3 (Control) to Example 125, reference compound]	50 (≈ 91.6 µM)	12.5 (≈ 22.9 µM)	12.5 (≈ 22.9 µM)	3.13 (≈ 5.74 µM)	–	–	–	–	–	–	–	–
C[N+]1(C/C=C/C2=C(C(=O)[O-])N3C(=O)[C@@H](NC(=O)/C(=N\OCF)c4nsc(N)n4)[C@H]3SC2)CCCC1 [Example 126, 7β-[2-(5-Amino-1,2,4-thiadiazol-3-yl)-(Z)-2-fluoromethoxyiminoacetamido]-3-[(E)-3-(1-methylpyrrolidinio)-1-propen-1-yl]-3-cephem-4-carboxylate]	12.5 (≈ 23.8 µM)	0.05 (≈ 0.0951 µM)	1.56 (≈ 2.97 µM)	0.05 (≈ 0.0951 µM)	≤ 0.025	0.8 (≈ 1.52 µM)	≤ 0.025	≤ 0.025	0.1 (≈ 0.19 µM)	0.05 (≈ 0.0951 µM)	–	–
C[N@@+]1(C/C=C/C2=C(C(=O)[O-])N3C(=O)[C@@H](NC(=O)/C(=N\OCC#N)c4nsc(N)n4)[C@H]3SC2)C[C@H](O)C[C@@H]1CO [Example 146, 7β-[2-(5-Amino-1,2,4-thiadiazol-3-yl)-(Z)-2-cyanomethoxyiminoacetamido]-3-[(E)-3-(1-methyl-2R-hydroxymethyl-4R-hydroxy-1-pyrrolidinio)-1-propen-1-yl]-3-cephem-4-carboxylate]	–	–	–	–	0.05 (≈ 0.0864 µM)	1.56 (≈ 2.7 µM)	0.1 (≈ 0.173 µM)	0.05 (≈ 0.0864 µM)	0.4 (≈ 0.691 µM)	0.05 (≈ 0.0864 µM)	–	LD50 (in vivo; mouse, iv): > 2000 mg/kg
CO/N=C(\C(=O)N[C@@H]1C(=O)N2C(C(=O)[O-])=C(/C=C/C[N+](C)(C)C)CS[C@H]12)c1nsc(N)n1 [CH3 (Control) to Example 128, reference compound]	> 100	6.25 (≈ 13 µM)	6.25 (≈ 13 µM)	0.2 (≈ 0.415 µM)	–	–	–	–	–	–	–	–
NC(=O)C1CC[N+](C/C=C/C2=C(C(=O)[O-])N3C(=O)[C@@H](NC(=O)/C(=N\OCF)c4nsc(N)n4)[C@H]3SC2)(CCO)CC1 (single isomer, unassigned) [Example 2-1, 7β-[2-(5-Amino-1,2,4-thiadiazol-3-yl)-(Z)-2-fluoromethoxyiminoacetamido]-3-[(E)-3-[1-(2-hydroxyethyl)-4-carbamoyl-1-piperidinio]-1-propen-1-yl]-3-cephem-4-carboxylate]	–	–	–	–	0.05 (≈ 0.0816 µM)	–	–	0.05 (≈ 0.0816 µM)	0.4 (≈ 0.653 µM)	0.05 (≈ 0.0816 µM)	> 2000	MIC (Pseud. aeruginosa EP-01; Pseudomonas aeruginosa, EP01, 18 h): 1.56 µg/mL (≈ 2.55 µM); MIC (Escher. coli NIHJ; Escherichia coli, 18 h): 0.05 µg/mL (≈ 0.0816 µM)
C[N+](C)(C/C=C/C1=C(C(=O)[O-])N2C(=O)[C@@H](NC(=O)/C(=N\OCC#N)c3nsc(N)n3)[C@H]2SC1)CC(N)=O [Example 155]	–	–	–	–	0.05 (≈ 0.091 µM)	1.56 (≈ 2.84 µM)	0.1 (≈ 0.182 µM)	0.1 (≈ 0.182 µM)	0.4 (≈ 0.728 µM)	0.2 (≈ 0.364 µM)	> 2000	–
CC12C[N+](C/C=C/C3=C(C(=O)[O-])N4C(=O)[C@@H](NC(=O)/C(=N\OCF)c5nsc(N)n5)[C@H]4SC3)(CCO1)CCO2 [Example 12, 7β-[2-(5-Amino-1,2,4-thiadiazol-3-yl)-(Z)-2-fluoromethoxyiminoacetamido]-3-[(E)-3-(5-aza-1-methyl-2,8-dioxabicyclo[3.3.1]nona-5-io)-1-propen-1-yl]-3-cephem-4-carboxylate]	–	–	–	–	–	1.56 (≈ 2.67 µM)	0.05 (≈ 0.0857 µM)	0.05 (≈ 0.0857 µM)	0.4 (≈ 0.685 µM)	0.1 (≈ 0.171 µM)	> 2000	MIC (Kleb. pneumoniae EK-6; Klebsiella pneumoniae, EK6, 18 h): ≤ 0.025 µg/mL
Nc1nc(/C(=N/OCF)C(=O)N[C@@H]2C(=O)N3C(C(=O)[O-])=C(/C=C/C[N+]4(CCO)C[C@H](O)C[C@H]4CO)CS[C@H]23)ns1 (single isomer, unassigned) [Example 7-2, 7β-[2-(5-Amino-1,2,4-thiadiazol-3-yl)-(Z)-2-fluoromethoxyiminoacetamido]-3-[(E)-3-[4R-hydroxy-1-(2-hydroxyethyl)-2S-hydroxymethyl-1-pyrrolidinio]-1-propen-1-yl]-3-cephem-4-carboxylate]	–	–	–	–	–	–	–	–	–	–	> 2000	MIC (Kleb. pneumoniae EK-6; Kleb. pneumoniae EK-6, agar dilution, about 10^6 CFU/ml, 18 hours, 37° C.): ≤ 0.025 µg/mL; MIC ([3]; 18 hours): ≤ 0.025 µg/mL; MIC (Pseud. aeruginosa EP-01; Pseud. aeruginosa EP-01, agar dilution, about 10^6 CFU/ml, 18 hours, 37° C.): 0.8 µg/mL (≈ 1.33 µM); MIC (Escher. coli NIHJ; Escher. coli NIHJ, agar dilution, about 10^6 CFU/ml, 18 hours, 37° C.): ≤ 0.025 µg/mL; MIC (Staph. aureus 209-P): 0.2 µg/mL (≈ 0.332 µM); MIC (Ser. marcescens ES-75): ≤ 0.025 µg/mL

Continued, in another order:

MIC [1] [µg/mL]	MIC (Proteus vulgaris E 08042) [µg/mL]	MIC (Staph. aureus E 31106) [µg/mL]	MIC [2] [µg/mL]	MIC (Kleb. pneumoniae EK-6; [4]) [µg/mL]	MIC (Pseud. aeruginosa EP-01; [6]) [µg/mL]	MIC (Escher. coli NIHJ; [7]) [µg/mL]	SMILES	MIC [3, 5] [µg/mL]	MIC (Staph. aureus 209-P; [8]) [µg/mL]	MIC (Ser. marcescens ES-75; [9]) [µg/mL]	LD50 (in vivo; [10]) [mg/kg]	other results
25 (≈ 50 µM)	0.1 (≈ 0.2 µM)	3.13 (≈ 6.27 µM)	0.1 (≈ 0.2 µM)	0.05 (≈ 0.1 µM)	0.8 (≈ 1.6 µM)	0.05 (≈ 0.1 µM)	C[N+](C)(C)C/C=C/C1=C(C(=O)[O-])N2C(=O)[C@@H](NC(=O)/C(=N\OCF)c3nsc(N)n3)[C@H]2SC1 [Example 128, 7β-[2-(5-Amino-1,2,4-thiadiazol-3-yl)-(Z)-2-fluoromethoxyiminoacetamido]-3-[(E)-3-(trimethylammonio)-1-propen-1-yl]-3-cephem-4-carboxylate]	0.05 (≈ 0.1 µM)	0.2 (≈ 0.4 µM)	0.1 (≈ 0.2 µM)	–	–
100 (≈ 197 µM)	1.56 (≈ 3.07 µM)	–	0.1 (≈ 0.197 µM)	–	–	–	CO/N=C(\C(=O)N[C@@H]1C(=O)N2C(C(=O)[O-])=C(/C=C/C[N+]3(C)CCCC3)CS[C@H]12)c1nsc(N)n1 [CH3 (Control) to Example 126, reference compound]	–	–	–	–	–
6.25 (≈ 11.1 µM)	≤ 0.025	3.13 (≈ 5.56 µM)	≤ 0.025	≤ 0.025	0.8 (≈ 1.42 µM)	≤ 0.025	NC(=O)c1cc[n+](C/C=C/C2=C(C(=O)[O-])N3C(=O)[C@@H](NC(=O)/C(=N\OCF)c4nsc(N)n4)[C@H]3SC2)cc1 [Example 127, 7β-[2-(5-Amino-1,2,4-thiadiazol-3-yl)-(Z)-2-fluoromethoxyiminoacetamido]-3-[(E)-3-(4-carbamoylpyridinio)-1-propen-1-yl]-3-cephem-4-carboxylate]	≤ 0.025	0.1 (≈ 0.178 µM)	0.05 (≈ 0.0889 µM)	–	–
25 (≈ 44.4 µM)	0.2 (≈ 0.355 µM)	6.25 (≈ 11.1 µM)	0.4 (≈ 0.71 µM)	≤ 0.025	1.56 (≈ 2.77 µM)	≤ 0.025	Nc1nc(/C(=N/OCF)C(=O)N[C@@H]2C(=O)N3C(C(=O)[O-])=C(/C=C/C[n+]4ccc(C(=O)O)cc4)CS[C@H]23)ns1 [Example 125, 7β-[2-(5-Amino-1,2,4-thiadiazol-3-yl)-(Z)-2-fluoromethoxyiminoacetamido]-3-[(E)-3-(4-carboxypyridinio)-1-propen-1-yl]-3-cephem-4-carboxylate]	≤ 0.025	0.4 (≈ 0.71 µM)	≤ 0.025	–	–
50 (≈ 91.8 µM)	3.13 (≈ 5.75 µM)	6.25 (≈ 11.5 µM)	0.4 (≈ 0.735 µM)	–	–	–	CO/N=C(\C(=O)N[C@@H]1C(=O)N2C(C(=O)[O-])=C(/C=C/C[n+]3ccc(C(N)=O)cc3)CS[C@H]12)c1nsc(N)n1 [CH3 (Control) to Example 127, reference compound]	–	–	–	–	–
